Patent US6794124B2, “Preservation solution” (Stiftelsen Facthor, priority 1995, dated 2004)

How the values were obtained:
[1] = test system: smooth muscular cells and endothelial cells from blood vessels; assay: morphology of blood vessel cells after long storage with or without calcium (FIG. 2)
From the text: The vascular endothelium contains hydrocarbon chains which are bound to proteins in the cell membranes, and these constitute a so-called layer of glycocalyx. This is a thin layer of a mucous substance (composed of sugars) which is considered to enclose the cell membranes and which is important to the properties of immunity of the cell and makes the cell wall permeable. These hydrocarbon chains are bound together by, among other things, calcium. If the vascular endothelial cells are subjected to calcium-free solutions for a long time, a disintegration of the important layer of glycocalyx is assumed to take place, and the function of the endothelium thus cannot be perfect. Evidence of these discoveries has been obtained through electron microscope studies of cell membranes in blood vessels that have been stored in preservation solutions with and without calcium.
The pictures show, on the one hand, smooth muscular cells from blood vessels and, on the other hand, endothelial cells from blood vessels that have been stored for a long time with or without calcium. In the case of preservation without calcium (a: smooth muscular cell and c: endothelial cell), there appears an enormous swelling of the nuclei and the cytoplasm in both types of cells.

blood vessels = assay: short-term and long-term preservation of blood vessels

| Compound | cell morphology after long storage [1] | time for which smooth muscle function in blood vessels is preserved (blood vessels; long-term preservation) | toxicity to the vascular endothelium / endothelial function (blood vessels) |
| --- | --- | --- | --- |
| [Ca+2] [calcium] | normal structures of the cells | up to 36 hours |  |
| heparin [reference compound] |  |  | not toxic to the endothelial function |
